# Laboratory results reported in paper PMC8160793, “Potent Antimicrobial and Antibiofilm Activities of Feleucin-K3 Analogs Modified by α-(4-Pentenyl)-Ala against Multidrug-Resistant Bacteria” (Biomolecules, 2021).
# Square brackets hold non-standard residues; d marks the D form. Peptide text beside a SMILES is read from it. ξ: configuration not given here. ξαMeGly(pent-4-enyl) = C=CCCCC(C)(N)C(=O)O
# Key:
# Type in all cases: cell-based, Acinetobacter baumannii
# A. baumannii 9828 = conditions: 9828, 18 h
# Procedure, shortened: (§1)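 MICs come from broth microdilution with 1 × 10^6 CFU/mL bacteria and peptide at 8–128 μg/mL, incubated 18 h at 37 °C. Salt stability was assessed under 450-mM NaCl, otherwise identically. Values were accepted once obtained three times.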
# A. baumannii 92359 = conditions: 92359, 18 h
# Procedure, shortened: as §1
# A. baumannii 91199 = conditions: 91199, 18 h
# Procedure, shortened: as §1
# A. baumannii 91152 = conditions: 91152, 18 h
# Procedure, shortened: as §1
# A. baumannii 91944 = conditions: 91944, 18 h
# Procedure, shortened: as §1
# A. baumannii 51243 = conditions: 51243, 18 h
# Procedure, shortened: as §1
# A. baumannii ATCC 19606 = conditions: ATCC 19606, 18 h
# Procedure, shortened: as §1
# A. baumannii 91105 = conditions: 91105, 18 h
# Procedure, shortened: as §1
# A. baumannii 5444 = conditions: 5444, 18 h
# Procedure, shortened: as §1
# A. baumannii 91810 = conditions: 91810, 18 h
# Procedure, shortened: as §1
# A. baumannii 9840 = conditions: 9840, 18 h
# Procedure, shortened: as §1
# A. baumannii 97830 = conditions: 97830, 18 h
# Procedure, shortened: as §1
Structure (SMILES),"MIC, A. baumannii 9828 (A. baumannii 9828) [µg/mL]","MIC, A. baumannii 92359 (A. baumannii 92359) [µg/mL]","MIC, A. baumannii 91199 (A. baumannii 91199) [µg/mL]","MIC, A. baumannii 91152 (A. baumannii 91152) [µg/mL]","MIC, A. baumannii 91944 (A. baumannii 91944) [µg/mL]","MIC, A. baumannii 51243 (A. baumannii 51243) [µg/mL]","MIC, A. baumannii ATCC 19606 (A. baumannii ATCC 19606) [µg/mL]","MIC, A. baumannii 91105 (A. baumannii 91105) [µg/mL]","MIC, A. baumannii 5444 (A. baumannii 5444) [µg/mL]","MIC, A. baumannii 91810 (A. baumannii 91810) [µg/mL]","MIC, A. baumannii 9840 (A. baumannii 9840) [µg/mL]","MIC, A. baumannii 97830 (A. baumannii 97830) [µg/mL]"
C=CCCCC(C)(N)C(=O)N[C@@H](CC(C)C)C(=O)N[C@@H](CCCCN)C(=O)N[C@@H](CC(C)C)C(=O)N[C@@H](CC(C)C)C(=O)N[C@@H](CCCCN)C(=O)N[C@@H](CCCCN)C(=O)N[C@@H](CC(C)C)C(=O)N[C@@H](CC(C)C)C(N)=O (stereo partly drawn) [Feleucin-K65] (H-[ξαMeGly(pent-4-enyl)]LKLLKKLL-NH2),4,4,4,4,4,4,4,4,4,4,4,4
C=CCCCC(C)(NC(=O)[C@H](CC(C)C)NC(=O)[C@H](CCCCN)NC(=O)[C@H](CCCCN)NC(=O)[C@H](CC(C)C)NC(=O)[C@H](CC(C)C)NC(=O)[C@H](CCCCN)NC(=O)[C@H](CC(C)C)NC(=O)[C@@H](N)Cc1ccccc1)C(N)=O (stereo partly drawn) [Feleucin-K70] (H-FLKLLKKL[ξαMeGly(pent-4-enyl)]-NH2),8,8,8,8,8,8,8,4,8,8,8,8
